As a reminder, the inhibition is the drop in the measured response relative to a control, in per cent.

The structures appear in SMILES notation.

The subject of one assay is Endothelin-converting enzyme 1 (Sus scrofa). Description: Inhibition of endothelin-converting enzyme 1 partially purified from porcine primary aortic endothelial cells at 20 uM. Particulars: Endothelial cell.
`O=C(CCc1cccnc1)N[C@@H](CS)Cc1ccccc1` returned an inhibition of 66%.

`O=C(Cc1ccc(OCc2ccccc2)cc1)N[C@@H](CS)Cc1ccc(-c2cccc3ccccc23)cc1`: the inhibition was determined as 0%.

The compound `O=C(N[C@@H](CS)Cc1ccccc1)[C@@H]1CCCN1` yielded an inhibition of 0%.

With `O=C(N[C@@H](CS)Cc1ccccc1)c1ccccn1`, the inhibition is 52%.

Consider `O=C(CCc1ccccc1)N[C@@H](CS)Cc1ccccc1`, for which the inhibition came to 49%.

`O=C(CCc1ccccc1Cl)N[C@@H](CS)Cc1ccccc1` displayed an inhibition of 57%.

With `O=C(Cc1ccc(-c2ccccc2)cc1)N[C@@H](CS)CCc1ccccc1`, the inhibition was 16%.

As to `O=C(N[C@@H](CS)Cc1ccccc1)c1cc2ccccc2cn1`, the inhibition was found to be 76%.

Consider `O=C(CCc1ccccc1O)N[C@@H](CS)Cc1ccccc1`, for which the inhibition is 58%.

Take `O=C(Cc1ccc(OCc2ccccc2)cc1)N[C@@H](CS)Cc1cccc2ccccc12`: the inhibition is 51%.

In turn, `O=C(N[C@@H](CS)Cc1ccccc1)c1c[nH]c2ccccc12` yielded an inhibition of 67%.

In turn, `O=C(Cc1cccnc1)N[C@@H](CS)Cc1ccccc1` came in with an inhibition of 58%.

`O=C(N[C@@H](CS)Cc1ccccc1)c1cccs1` registered an inhibition of 67%.

On to `CN(C(=O)Cc1ccccc1)[C@@H](CS)Cc1ccccc1`, for which the inhibition stood at 24%.

For the compound `O=C(N[C@@H](CS)Cc1ccccc1)c1ccco1`, the inhibition was found to be 54%.

`O=C(Cc1ccc(-c2ccccc2)cc1)N[C@@H](CS)Cc1ccccc1` displayed an inhibition of 74%.

Regarding `O=C(Cc1ccccc1)N[C@@H](CS)Cc1ccccc1`, the inhibition was determined as 58%.

Compound `O=C(Cc1ccc(OCc2ccccc2)cc1)N[C@@H](CS)Cc1ccc2ccccc2c1` displayed an inhibition of 10%.

On to `O=C(N[C@@H](CS)Cc1ccc(-c2ccccc2)cc1)c1cccnc1`, for which the inhibition worked out at 39%.

For the compound `O=C(CCC(C(=O)O)c1ccccc1)N[C@@H](CS)Cc1ccccc1` (some centres undefined), the inhibition turned out to be 48%.

In turn, `O=C(Cc1ccc(OCc2ccccc2)cc1)N[C@H](Cc1c[nH]c2ccccc12)C(=O)N1CCC[C@@H]1CS` returned an inhibition of over 20%.

For `Cn1cc(C[C@H](CS)NC(=O)Cc2ccc(-c3ccccc3)cc2)c2ccccc21`, the inhibition was 68%.

`CC(C)C[C@H](CS)NC(=O)c1cccnc1`: the inhibition is 21%.

Turning to `O=C(N[C@@H](CS)Cc1ccccc1)C1Cc2ccccc2CN1` (some centres undefined), the inhibition turned out to be 33%.

`O=C(Cc1ccc(OCc2ccccc2)cc1)N[C@@H](CCS)Cc1c[nH]c2ccccc12` returned an inhibition of over 20%.

`O=C(Cc1ccccc1)N[C@@H](CS)Cc1ccc(OCc2ccccc2)cc1` gave an inhibition of 15%.

Compound `O=C(N[C@@H](CS)Cc1ccccc1)c1ccncc1` showed an inhibition of 48%.

For `O=C(Cc1ccc(-c2ccccc2)cc1)N[C@@H](CS)Cc1cccnc1`, the inhibition amounted to 91%.

Compound `O=C(N[C@H](Cc1c[nH]c2ccccc12)C(=O)NCCS)c1cccnc1` returned an inhibition of over 20%.

Compound `CC(C)[C@H](CS)NC(=O)c1cccnc1` gave an inhibition of 30%.

The compound `O=C(N[C@@H](CS)Cc1ccccc1)/C(=C/c1ccccc1)c1ccccc1` displayed an inhibition of 23%.

Compound `O=C(N[C@@H](CS)Cc1ccccc1)c1nccc2ccccc12` gave an inhibition of 36%.

Consider `O=C(Cc1ccccc1)N[C@@H](CS)Cc1ccc(O)cc1`, for which the inhibition is 56%.

The test system is the same in another assay. Description: Compound was evaluated for inhibition of Endothelin converting enzyme-1 partially purified from porcine primary aortic endothelial cells at 20 uM. Particulars: Endothelial cell.
The compound `O=C(Cc1ccccc1OCc1ccccc1)N[C@@H](CS)Cc1ccccc1` returned an inhibition of 63%.
